Measurements: patent US20070197453A1, “Compositions and methods for treatment of disorders of protein aggregation” (priority 2006, published 2007)
“Also recorded” adds a separate entry of the source.

How the values were obtained:
TgCRND8 mice [1] = assay: Morris Water Maze spatial reference memory test; assay type: in vivo, mouse; conditions: for spatial memory / cognition compared to untreated TgCRND8 mice / spatial memory compared to non-Tg littermates: one month treatment from 5 months of age; for effect on non-Tg littermate performance: one month treatment
Procedure: (§1) Behavioural tests: Morris Water Maze testing was performed as previously described. After non-spatial pre-training, mice underwent place discrimination training for 5 days with 4-trials per day, followed by a cued visible platform to rule out general motivational, learning deficits and motor problems, and a probe trial to evaluate memory. […] Open field test for motor activity was preformed as described previously. Duration of walking, pausing and grooming were analyzed as indices of spontaneous locomotor activity. Sensorimotor function was examined with an Economex™ accelerating rotarod (Columbus Instruments, Columbus, Ohio), as described elsewhere. The rod was set to accelerate at a rate of 0.2 r.p.m./s, from an initial, constant speed of 5 r.p.m. Latency to fall was recorded in four daily trials, conducted at 30 min intervals. All mice were trained for seven days before testing. The test day performance score for each animal was obtained by summing its latency to fall over the four trials
Behavioural tests: Behavioural analyses were performed using the Morris Water Maze test (13, 14). After pre-spatial training, mice underwent place discrimination training for 5 days with 4 trials per day, followed by a cued visible platform to rule out general motivational, learning deficits and motor problems. […] Open field test for motor activity was performed as described previously. Duration of walking, pausing, rearing and grooming were analyzed as indices of spontaneous locomotor activity.

TgCRND8 mice [2] = assay: Synaptophysin quantification by western blotting (hippocampus); assay type: in vivo, mouse
Procedure: Synaptophysin protein levels were determined in treated and control mice by western blotting. Sections were immunoblotted for synaptophysin with anti-synaptophysin IgG (1:40; Roche, Laval, PQ) or GAPDH IgG (1: 10,000; Biodesign International) as a loading control. Films were scanned before analyses using NIH Image analyses combined with densitometry. Synaptophysin values were normalized to the loading control for each sample. Statistical analyses were determined using factorial ANOVA with Fishers PLSD as a post-hoc test.

[3] = Hematology and serum biochemical analyses; assay type: in vivo, mouse
From the text: Blood was collected prior to sacrifice and samples were sent to VITA-TECH laboratories (Markham, ON, Canada) for analyses. Reference values were obtained from Zhou and Hansson.

TgCRND8 mice [4] = assay: Cued visible platform test (Morris Water Maze); assay type: in vivo, mouse; conditions: one month treatment from 5 months of age
Procedure: as §1
(§2) Behavioural tests: Behavioural analyses were performed using the Morris Water Maze test (13, 14). […] Duration of walking, pausing, rearing and grooming were analyzed as indices of spontaneous locomotor activity.

[5] = mouse, in vivo
Procedure: Mice. […] This initial dosage was chosen based upon the dosage of myo-cyclohexanehexol (6-18 grams/day/adult or 86-257 mg/Kg/day) that is typically administered to human patients for various psychiatric disorders. […] A cohort of animals (n=10 mice per treatment arm) entered the study at five months of age, and outcomes were then analyzed after one month of treatment. The body weight, coat characteristics and in cage behaviour were monitored. Mannitol was used as a negative control for potential alterations in caloric intake. All experiments were performed according to the Canadian Council on Animal Care guidelines.
Mice. […] Cohorts of animals entered the study at 5 months of age and outcomes were analyzed after one month. Alternatively, cohorts of animals entered the prophylactic study at 6 weeks of age and outcome measures were analysed at 6-months of age. The body weight, coat characteristics and in cage behaviour was monitored. All experiments were performed according to the Canadian Council on Animal Care guidelines.

TgCRND8 mice [6] = assay: Open field test for motor activity; assay type: in vivo, mouse; conditions: TgCRND8 mice and non-Tg littermates; drinking water 10 mg/ml, extended treatment
Procedure: as §1, §2

TgCRND8 mice [7] = assay: Survival census (Kaplan-Meier); assay type: in vivo, mouse; conditions: for Kaplan Meier cumulative survival: compared to untreated TgCRND8 mice
Procedure: (§3) Survival Census: The probability of survival was assessed by the Kaplan-Meier technique, computing the probability of survival at every occurrence of death, thus making it suitable for small sample sizes. For the analyses of survival, 35 mice were used for each treatment group. The Tarone-Ware test was used to assess effects of treatments.
as §3, with “technique” for “technique,”, “30” for “35”

Aβ40 = target: T1, Aβ40 (Homo sapiens, UniProt P05067); assay: Cerebral Aβ content: brain Aβ40 (ELISA kit); assay type: in vivo, mouse; conditions: TgCRND8 mice with pre-existing disease; 28 day treatment from 5 months of age
T1 construct: from tissue; host or cells: hemi-brain homogenate of TgCRND8 transgenic mice
T1 sequence (P05067 672-711): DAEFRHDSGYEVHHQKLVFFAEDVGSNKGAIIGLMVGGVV
Procedure: (§4) Plasma and Cerebral Aβ Content. Hemi-brain samples were homogenized in a buffered sucrose solution, followed by either 0.4% diethylamine/100 mM NaCl for soluble Aβ levels or cold formic acid for the isolation of total Aβ. After neutralization, the samples were diluted and analyzed for Aβ40 and Aβ42 using commercially available kits (BIOSOURCE International). Each hemisphere was analyzed in triplicate and the mean values±SEM reported. Western blot analyses were performed on all fractions using urea gels for Aβ species analyses. Aβ was detected using 6E10 (BIOSOURCE International) and Enhanced Chemiluminenscence (Amersham).
(§5) Cerebral Aβ Content. Hemi-brain samples were homogenized in a buffered sucrose solution, followed by either 0.4% diethylamine/100 mM NaCl for soluble Aβ levels or cold formic acid for the isolation of total Aβ [22]. After neutralization the samples were diluted and analyzed for Aβ40 and Aβ42 using commercially available kits (BIOSOURCE International). Each hemisphere was analyzed in triplicate with the mean±SEM reported. Plasma was diluted and run directly on the ELISA.

neurons = conditions: cited from earlier work
Aβ42 [8] = target: T2, Aβ42 (Homo sapiens, UniProt P05067); assay: Plasma Aβ42 levels; assay type: in vivo, mouse; design: from tissue; host or cells: plasma of TgCRND8 transgenic mice; conditions: TgCRND8 mice following 28 days of therapy at five months of age
Procedure: as §4, §5
Target sequence in this assay (P05067 672-713): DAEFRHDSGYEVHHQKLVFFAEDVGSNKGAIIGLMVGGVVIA

TgCRND8 mice [9] = assay: Cerebral amyloid plaque burden (anti-Aβ immunostaining, image analysis); assay type: in vivo, mouse
Procedure: Cerebral amyloid burden. Brains were removed and one hemisphere was fixed in 4% paraformaldehyde and embedded in paraffin wax in the mid sagittal plane. To generate sets of systematic uniform random sections, 5 μm serial sections were collected across the entire hemisphere. Sets of sections at 50 μm intervals were used for analyses (10-14 sections/set). Plaques were identified after antigen retrieval with formic acid, and incubation with primary anti-Aβ antibody (Dako M-0872), followed by secondary antibody (Dako StreptABCcomplex/horseradish kit). End products were visualized with DAB and were counter-stained with luxol fast blue. Amyloid plaque burden was assessed with Leco IA-3001 image analysis software interfaced with Leica microscope and Hitachi KP-M1U CCD video camera. Openlab imaging software (Improvision, Lexington, Mass.) was then used to convert micrographs to binary images for plaque number and plaque area determinations. Vascular amyloid burden was defined as amyloid originating from or surrounding blood vessels and was analysed similarly.

Aβ42 [10] = target: T2, Aβ42; assay: Cerebral Aβ content: brain Aβ42 (ELISA kit); assay type: in vivo, mouse; design: from tissue; host or cells: hemi-brain homogenate of TgCRND8 transgenic mice; conditions: TgCRND8 mice with pre-existing disease; 28 day treatment from 5 months of age
Procedure: as §4, §5
Target sequence in this assay (P05067 672-713 limits assumed): as the sequence (P05067 672-713) above

TgCRND8 mice [11] = assay: Gliosis quantitation (GFAP astrocytes, CD68 microglia); assay type: in vivo, mouse
Procedure: Gliosis Quantitation. Five randomly selected, evenly spaced, sagittal sections were collected from paraformaldehyde-fixed and frozen hemispheres of treated and control mice. Sections were immunolabelled for astrocytes with anti-rat GFAP IgG2a (Dako; diluted 1:50) and for microglia with anti-rat CD68 IgG2b (Dako; 1:50). Digital images were captured using a Coolsnap digital camera (Photometrics, Tuscon, Ariz.) mounted to a Zeiss, Axioscope 2 Plus microscope. Images were analysed using Openlab 3.08 imaging software (Improvision, Lexington Mass.).

[12] = 6-18 grams/day/adult or 86-257 mg/Kg/day; reference [21]; cited from earlier work
Pilot in vivo studies = conditions: data not shown
Aβ = conditions: reference [11]; cited from earlier work
[13] = drinking water 10 mg/ml, listed as Epi-2-inosose
[14] = drinking water 10 mg/ml, prophylactic from 6 weeks until six months of age
[15] = six month old TgCRND8 mice, 28 days of oral treatment beginning at five months of age
[16] = TgCRND8 mice, 4-month Prophylactic (oral from 6 weeks to 4 months of age)
[17] = TgCRND8 mice, 6-month Prophylactic (oral from 6 weeks to 6 months of age)
[18] = TgCRND8 mice, oral treatment for 28 days (1 month) from 5 months of age, analysed at 6 months

epi-2-inosose
spatial memory / cognition compared to untreated TgCRND8 mice (TgCRND8 mice [1]; drinking water 10 mg/ml): significantly better than untreated TgCRND8 littermates
spatial memory compared to non-Tg littermates (TgCRND8 mice [1]; drinking water 10 mg/ml): not significantly different from non-Tg littermates
spatial memory / cognition compared to untreated TgCRND8 mice (TgCRND8 mice [1]; [13]): significantly improved cognition
spatial memory compared to non-Tg littermates (TgCRND8 mice [1]; [13]): not significantly different from treated nTg littermates
spatial learning compared to non-Tg littermates (TgCRND8 mice [1]; [14]): approached that of non-Tg littermates
spatial learning compared to untreated TgCRND8 littermates (TgCRND8 mice [1]; [14]): better cognitive function compared to their untreated TgCRND8 littermates
spatial learning compared to non-Tg littermates (TgCRND8 mice [1]; drinking water 10 mg/ml, prophylactic from 6 weeks until six months of age, listed as Epi-2-inosose): different from non-Tg littermates on all days of testing
effect on non-Tg littermate performance (TgCRND8 mice [1]; non-Tg littermates, drinking water 10 mg/ml): no effect on non-Tg littermate performance
effect on non-Tg littermate performance (TgCRND8 mice [1]; non-Tg littermates, drinking water 10 mg/ml, listed as Epi-2-inosose): no effect on non-Tg littermate behaviour
effect on cognitive performance of non-Tg mice (TgCRND8 mice [1]; non-Tg mice, prophylactic administration): no effect on the cognitive performance of non-Tg mice
Synaptophysin reactivity / levels (TgCRND8 mice [2]; 6 month prophylactic and treatment paradigms): significantly increased
increase in synaptophysin reactivity in the hippocampus (TgCRND8 mice [2]; delayed treatment study): 15%
increase in synaptophysin reactivity in the hippocampus (TgCRND8 mice [2]; prophylactic study): 33%
serum biochemistry: organ function ([3]; Tg and non-Tg mice treated): normal kidney, heart, liver and pancreas function
ALP ([3]; serum, Treated TgCRND8): 73 ± 5 U/L
ALT ([3]; serum, Treated TgCRND8): 30 ± 3 U/L
Albumin ([3]; serum, Treated TgCRND8): 32 ± 2 g/L
Bilirubin ([3]; serum, Treated TgCRND8): 1.8 ± 0.15 µmol/L
Creatine ([3]; serum, Treated TgCRND8): 15.9 ± 2 µmol/L
Globulin ([3]; serum, Treated TgCRND8): 18 ± 2 g/L
Glucose ([3]; serum, Treated TgCRND8): 12 ± 0.6 mmol/L
Total Protein ([3]; serum, Treated TgCRND8): 49 ± 0.7 g/L
Urea ([3]; serum, Treated TgCRND8): 8.6 ± 0.4 mmol/L
Visual acuity (cued version of the Morris Water Maze test) (TgCRND8 mice [4]): not altered by treatment
survival, weight, fur condition, cage behaviour [5]: no effect on survival, weight, fur condition, or cage behaviour of wild type mice
open field test: rearing, grooming, walking, pausing (activity levels) (TgCRND8 mice [6]): indistinguishable; also recorded: does not affect activity levels
Kaplan Meier cumulative survival (TgCRND8 mice [7]; drinking water 10 mg/ml): increased survival
improvement of survival (TgCRND8 mice [7]; prophylactic treatment to six months of age, vs untreated): 50%

1,2,3,4,5/6-(epi-)cyclohexanehexol [epi-cyclohexanehexol]
effect on brain Aβ40 levels (Aβ40): no significant impact
Non-Tg littermate behaviour under treatment (TgCRND8 mice [1]; non-Tg littermates, Morris Water Maze): not affected
cognition compared to non-Tg mice (TgCRND8 mice [1]; prophylactic treatment, four months of age): significantly different from treated and untreated non-Tg mice
cognition compared to non-Tg littermates (TgCRND8 mice [1]; prophylactic treatment, six months of age): approached that of non-Tg littermates
spatial reference memory performance compared to non-Tg littermates (TgCRND8 mice [1]; [15]): significantly poorer than the performance of their non-Tg littermates; also recorded: remained impaired with respect to non-Tg littermates
spatial reference memory performance compared to untreated TgCRND8 littermates (TgCRND8 mice [1]; [15]): not significantly different from that of untreated TgCRND8 littermates
activity against synthetic Aβ42 neurotoxicity (neurons): protects neurons from synthetic Aβ42 cytotoxicity
Plasma Aβ42 levels (Aβ42 [8]): 1079 ± 79 pg/mL
amyloid (plaque) burden, immunostaining (TgCRND8 mice [9]; TgCRND8 mice at six months of age, hippocampus and cerebral cortex): modest effect on amyloid burden
plaque burden (percent area of the brain covered with plaques, plaque number) (TgCRND8 mice [9]; TgCRND8 mice with pre-existing disease, one month treatment from 5 months of age): no significant impact
Mean Plaque Size (TgCRND8 mice [9]; [16]): 95 ± 43 μm^2
Total Plaque Area (TgCRND8 mice [9]; [16]): 65042 ± 5199 μm^2
Mean Plaque Size (TgCRND8 mice [9]; [17]): 370 ± 9 μm^2
Total Plaque Area (TgCRND8 mice [9]; [17]): 380456 ± 13498 μm^2
Mean Plaque Size (TgCRND8 mice [9]; [18]): 346 ± 6 μm^2
Total Plaque Area (TgCRND8 mice [9]; [18]): 459706 ± 49966 μm^2
Total Plaque Count (TgCRND8 mice [9]; TgCRND8 mice, oral treatment for 28 days from 5 months of age, analysed at 6 months): 1342 ± 114
effect on brain Aβ42 levels (Aβ42 [10]): no significant impact
percent brain area covered with microgliosis (TgCRND8 mice [11]; TgCRND8 mice): decreased the percent brain area covered with microgliosis
astrogliosis / gliosis, anti-GFAP immunostaining (TgCRND8 mice [11]; TgCRND8 mice at six months of age): decrease in astrogliosis
percent brain area covered in astrogliosis (TgCRND8 mice [11]; TgCRND8 mice, 4- and 6-months of age): decreased the percent brain area covered in astrogliosis at both 4- and 6-months of age
Kaplan Meier cumulative survival (TgCRND8 mice [7]): did not significantly improve survival

O[C@H]1[C@H](O)[C@@H](O)[C@H](O)[C@@H](O)[C@H]1O [myo-cyclohexanehexol, 1,2,3,5/4,6-(myo-)cyclohexanehexol]
toxicity [12]: no toxicity in humans or animals
benefit in pilot in vivo studies (Pilot in vivo studies): no significant benefit
effectiveness in prior in vitro studies (Aβ): only weakly effective

OC1C(O)C(O)C(O)C(O)C1O (stereo not drawn) [chiro-inositol, chiro-cyclohexanehexol, reference compound]
activity against synthetic Aβ42 neurotoxicity (neurons): inactive
